Experimental data from patent US20250236608A1, “EGFR INHIBITORS” (Blueprint Medicines Corporation, priority 2022, published 2025).
pIC50: −log10 of the molar value.

Assays:
[1] = molecular target: EGFR (d746-750) (Homo sapiens (Human), UniProt P00533, DEL746-750); assay: Biochemical EGFR inhibition assay, EGFR (d746-750); settings: Caliper mobility shift; 1.0 mM ATP or ATP Km; read-out: Enz EGFR_Exon19-del746-750 IC50
[2] = molecular target: pEGFR (Tyr1068) in PC-9 cells (Ex19Del) (Homo sapiens (Human), UniProt P00533, DEL746-750); assay: PC-9 pEGFR AlphaLISA assay; format: cell-based; settings: 4 hours incubation, p-EGFR (Tyr1068) AlphaLISA, read-out: Ext pEGFR_PC-9 Ex19Del IC50
Procedure, shortened: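 Cells seeded in phenol-free DMEM with 10% FBS adhered overnight at 37° C./5% CO2, then were exposed for 4 hours to a 4-fold, 10-point compound dilution series. After lysis, phospho-EGFR was read by AlphaLISA SureFire Ultra, and IC50 was fitted from percent inhibition versus log concentration.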

[3] = molecular target: EGFR L858R (Homo sapiens (Human), UniProt P00533, L858R); assay: Biochemical EGFR inhibition assay, EGFR L858R; settings: Caliper mobility shift; 1.0 mM ATP or ATP Km; read-out: Enz EGFR_L858R IC50
Chain of EGFR L858R (P00533 25-1210 L858R): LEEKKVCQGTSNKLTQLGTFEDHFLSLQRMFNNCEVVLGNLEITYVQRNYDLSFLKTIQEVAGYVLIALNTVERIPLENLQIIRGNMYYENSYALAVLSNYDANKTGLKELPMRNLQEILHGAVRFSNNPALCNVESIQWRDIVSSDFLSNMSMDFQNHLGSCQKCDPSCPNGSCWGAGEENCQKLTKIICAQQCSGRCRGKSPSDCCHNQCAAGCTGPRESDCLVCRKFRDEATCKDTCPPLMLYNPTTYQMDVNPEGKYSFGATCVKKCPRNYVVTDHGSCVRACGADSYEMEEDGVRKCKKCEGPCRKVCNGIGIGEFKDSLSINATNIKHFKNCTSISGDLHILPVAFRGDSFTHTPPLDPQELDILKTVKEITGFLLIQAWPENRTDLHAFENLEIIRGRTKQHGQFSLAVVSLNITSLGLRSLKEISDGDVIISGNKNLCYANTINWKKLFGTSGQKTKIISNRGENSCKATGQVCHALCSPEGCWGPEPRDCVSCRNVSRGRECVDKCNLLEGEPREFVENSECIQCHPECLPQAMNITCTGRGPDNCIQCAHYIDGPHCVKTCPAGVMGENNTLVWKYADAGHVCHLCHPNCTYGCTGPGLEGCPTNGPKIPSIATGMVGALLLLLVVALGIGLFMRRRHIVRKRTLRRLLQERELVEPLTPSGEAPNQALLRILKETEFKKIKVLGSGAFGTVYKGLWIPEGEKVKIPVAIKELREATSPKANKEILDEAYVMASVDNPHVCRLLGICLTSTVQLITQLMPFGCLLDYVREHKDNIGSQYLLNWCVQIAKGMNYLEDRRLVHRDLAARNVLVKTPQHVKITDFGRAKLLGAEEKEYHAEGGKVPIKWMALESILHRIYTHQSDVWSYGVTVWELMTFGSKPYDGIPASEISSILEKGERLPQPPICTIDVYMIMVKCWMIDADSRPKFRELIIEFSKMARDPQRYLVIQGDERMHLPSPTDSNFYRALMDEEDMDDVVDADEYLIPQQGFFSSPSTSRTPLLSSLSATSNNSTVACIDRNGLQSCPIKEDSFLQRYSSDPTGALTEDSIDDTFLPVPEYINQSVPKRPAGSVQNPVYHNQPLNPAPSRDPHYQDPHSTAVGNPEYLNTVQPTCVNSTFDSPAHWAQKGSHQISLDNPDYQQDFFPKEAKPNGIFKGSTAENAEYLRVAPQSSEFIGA

Chain of EGFR (d746-750) (P00533 other isoform, or with tags, fused parts or gaps del 1-694/del 746-750 limits assumed): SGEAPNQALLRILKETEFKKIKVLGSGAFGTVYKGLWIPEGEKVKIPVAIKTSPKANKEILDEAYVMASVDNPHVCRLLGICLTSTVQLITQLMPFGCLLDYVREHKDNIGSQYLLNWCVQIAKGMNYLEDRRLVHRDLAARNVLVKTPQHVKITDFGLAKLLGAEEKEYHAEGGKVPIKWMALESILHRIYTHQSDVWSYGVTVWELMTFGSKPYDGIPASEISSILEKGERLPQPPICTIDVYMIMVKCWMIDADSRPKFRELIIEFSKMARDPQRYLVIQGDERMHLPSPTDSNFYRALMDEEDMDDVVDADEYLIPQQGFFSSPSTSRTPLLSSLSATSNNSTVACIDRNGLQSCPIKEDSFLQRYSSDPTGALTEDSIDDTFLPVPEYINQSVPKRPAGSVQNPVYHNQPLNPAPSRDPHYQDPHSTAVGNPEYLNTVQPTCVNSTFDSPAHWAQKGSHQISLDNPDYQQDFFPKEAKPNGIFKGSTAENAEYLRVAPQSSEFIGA
Chain of pEGFR (Tyr1068) in PC-9 cells (Ex19Del) (P00533 other isoform, or with tags, fused parts or gaps del 746-750): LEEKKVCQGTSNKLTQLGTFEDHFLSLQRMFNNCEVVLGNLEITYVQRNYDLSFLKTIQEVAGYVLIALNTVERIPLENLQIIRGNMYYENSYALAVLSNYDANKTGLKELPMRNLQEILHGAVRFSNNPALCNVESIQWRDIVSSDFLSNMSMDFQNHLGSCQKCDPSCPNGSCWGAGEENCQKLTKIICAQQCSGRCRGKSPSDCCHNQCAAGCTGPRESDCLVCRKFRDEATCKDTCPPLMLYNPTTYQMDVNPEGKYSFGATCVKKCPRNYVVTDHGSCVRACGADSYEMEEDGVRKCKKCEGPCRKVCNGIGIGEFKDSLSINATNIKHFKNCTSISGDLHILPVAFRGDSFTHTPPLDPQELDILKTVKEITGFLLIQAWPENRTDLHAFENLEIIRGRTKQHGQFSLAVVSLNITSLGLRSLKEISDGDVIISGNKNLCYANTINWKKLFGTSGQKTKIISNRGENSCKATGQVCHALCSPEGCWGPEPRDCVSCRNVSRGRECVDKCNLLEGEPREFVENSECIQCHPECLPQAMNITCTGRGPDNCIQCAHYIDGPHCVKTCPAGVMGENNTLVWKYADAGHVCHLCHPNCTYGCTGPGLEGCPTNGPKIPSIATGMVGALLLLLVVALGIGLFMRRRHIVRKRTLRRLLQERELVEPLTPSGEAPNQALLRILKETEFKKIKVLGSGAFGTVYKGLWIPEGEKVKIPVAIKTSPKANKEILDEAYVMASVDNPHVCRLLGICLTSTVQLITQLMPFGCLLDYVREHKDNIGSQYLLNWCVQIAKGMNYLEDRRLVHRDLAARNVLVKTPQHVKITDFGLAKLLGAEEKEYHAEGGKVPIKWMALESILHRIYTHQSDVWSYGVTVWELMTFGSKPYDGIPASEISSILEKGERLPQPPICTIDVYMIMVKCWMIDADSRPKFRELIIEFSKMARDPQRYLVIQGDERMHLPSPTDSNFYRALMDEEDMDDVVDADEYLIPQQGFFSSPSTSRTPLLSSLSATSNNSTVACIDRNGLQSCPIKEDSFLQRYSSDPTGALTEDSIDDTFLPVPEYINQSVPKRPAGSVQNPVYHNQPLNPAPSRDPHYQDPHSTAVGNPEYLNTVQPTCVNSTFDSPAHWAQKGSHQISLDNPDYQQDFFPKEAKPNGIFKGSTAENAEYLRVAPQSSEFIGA

Row | Structure (SMILES) | pIC50 [1] | pIC50 [2] | pIC50 [3]
1 | COc1cc2ncnc(-c3cn(CC(F)F)nc3-c3ccccc3)c2cc1C1(O)CC1 [Example 126, 1-(4-(1-(2,2-difluoroethyl)-3-phenyl-1H-pyrazol-4-yl)-7-methoxyquinazolin-6-yl)cyclopropan-1-ol] | 9.05 | 8.49 | 8.72
2 | [2H]C([2H])([2H])N1CCN(C(=O)Nc2cc3c(-c4cn(C)nc4-c4ccccc4)ncnc3cc2OC)[C@@H](C)C1 [Example 181, (S)—N-(7-methoxy-4-(1-methyl-3-phenyl-1H-pyrazol-4-yl)quinazolin-6-yl)-2-methyl-4-(methyl-d3) piperazine-1-carboxamide] | 8.57 | 8.35 | 8.37
3 | COc1cc2ncnc(-c3cn(C)nc3-c3ccccc3)c2nc1O[C@H](C)c1cscn1 (single isomer, unassigned) [Example 49, (R)-4-(1-((7-methoxy-4-(1-methyl-3-phenyl-1H-pyrazol-4-yl)pyrido[3,2-d]pyrimidin-6-yl)oxy)ethyl)thiazole or (S)-4-(1-((7-methoxy-4-(1-methyl-3-phenyl-1H-pyrazol-4-yl)pyrido[3,2-d]pyrimidin-6-yl)oxy)ethyl)thiazole] | 9.22 | 8.92 | 8.89
4 | COc1cc2ncnc(-c3cn(C)nc3-c3ccccc3)c2cc1-c1cccc2cn(C)nc12 [Example 138, 7-methoxy-6-(2-methyl-2H-indazol-7-yl)-4-(1-methyl-3-phenyl-1H-pyrazol-4-yl)quinazoline] | 8.68 | 8.34 | 8.25
5 | COc1cc2ncnc(-c3cn(C)nc3-c3ccccc3)c2nc1NC(=O)c1cnn(C(F)(F)F)c1 [Example 360, N-(7-methoxy-4-(1-methyl-3-phenyl-1H-pyrazol-4-yl)pyrido[3,2-d]pyrimidin-6-yl)-1-(trifluoromethyl)-1H-pyrazole-4-carboxamide] | 9.00 | 8.57 | 8.74
6 | COc1cc2ncnc(-c3cn(C)nc3-c3ccccc3)c2nc1O[C@H](C)c1nnc(C)s1 (single isomer, unassigned) [Example 52, (R)-2-(1-((7-methoxy-4-(1-methyl-3-phenyl-1H-pyrazol-4-yl)pyrido[3,2-d]pyrimidin-6-yl)oxy)ethyl)-5-methyl-1,3,4-thiadiazole or (S)-2-(1-((7-methoxy-4-(1-methyl-3-phenyl-1H-pyrazol-4-yl)pyrido[3,2-d]pyrimidin-6-yl)oxy)ethyl)-5-methyl-1,3,4-thiadiazole] | 8.57 | 8.20 | 7.91
7 | COc1cc2ncnc(-c3cn(C)nc3-c3ccccc3)c2cc1N1CC[C@@H](F)[C@H](O)C1 (single isomer, unassigned) [Example 173, (3R,4R)-4-fluoro-1-(7-methoxy-4-(1-methyl-3-phenyl-1H-pyrazol-4-yl)quinazolin-6-yl) piperidin-3-ol or (3S,4S)-4-fluoro-1-(7-methoxy-4-(1-methyl-3-phenyl-1H-pyrazol-4-yl)quinazolin-6-yl) piperidin-3-ol] | 8.44 | 7.86 | 8.05
8 | CN1CC[C@@H](Oc2cc3c(-c4cn(C)nc4-c4ccccc4)ncnc3cc2OC(F)F)[C@H](F)C1 [Example 475, 7-(difluoromethoxy)-6-{[(3R,4R)-3-fluoro-1-methylpiperidin-4-yl]oxy}-4-(1-methyl-3-phenyl-1H-pyrazol-4-yl)quinazoline] | 7.68 | 7.15 | 7.18
9 | COc1cc2ncnc(-c3sc(C)nc3-c3ccccc3)c2cc1NC(=O)C1CC1 [Example 266, N-(7-methoxy-4-(2-methyl-4-phenylthiazol-5-yl)quinazolin-6-yl)cyclopropanecarboxamide] | 9.00 | 8.31 | 8.82
10 | COc1cc2ncnc(-c3cn(C)nc3-c3ccccc3)c2cc1NC(=O)C1(c2cccnc2)CC1 [Example 216, N-(7-methoxy-4-(1-methyl-3-phenyl-1H-pyrazol-4-yl)quinazolin-6-yl)-1-(pyridin-3-yl)cyclopropane-1-carboxamide] | 9.05 | 8.42 | 8.68
11 | CCOc1cc2ncnc(-c3cn(C)nc3-c3ccccc3)c2cc1N1CCOCC1=O [Example 267, 4-(7-ethoxy-4-(1-methyl-3-phenyl-1H-pyrazol-4-yl)quinazolin-6-yl)morpholin-3-one] | 8.01 | 7.92 | 6.96
12 | COc1cc2ncnc(-c3cn(C)nc3-c3ccccc3)c2cc1O[C@H]1CCOC[C@@H]1F [Example 17, 6-(((3S,4S)-3-fluorotetrahydro-2H-pyran-4-yl)oxy)-7-methoxy-4-(1-methyl-3-phenyl-1H-pyrazol-4-yl)quinazoline] | 8.96 | 8.62 | 8.74
13 | CCOc1cc2ncnc(-c3cn(C)nc3-c3ccc(F)cc3)c2nc1NC(=O)[C@]12COC[C@H]1C2 (single isomer, unassigned) [Example 384, (1S,5S)—N-(7-ethoxy-4-(3-(4-fluorophenyl)-1-methyl-1H-pyrazol-4-yl)pyrido[3,2-d]pyrimidin-6-yl)-3-oxabicyclo[3.1.0]hexane-1-carboxamide or (1R,5R)—N-(7-ethoxy-4-(3-(4-fluorophenyl)-1-methyl-1H-pyrazol-4-yl)pyrido[3,2-d]pyrimidin-6-yl)-3-oxabicyclo[3.1.0]hexane-1-carboxamide] | 9.52 | 8.96 | 8.96
14 | [2H]C([2H])([2H])Oc1cc2ncnc(-c3cn(C([2H])([2H])[2H])nc3-c3ccccc3)c2nc1NC(=O)C1(C(F)(F)F)CC1 [Example 486, N-(7-(methoxy-d3)-4-(1-(methyl-d3)-3-phenyl-1H-pyrazol-4-yl)pyrido[3,2-d]pyrimidin-6-yl)-1-(trifluoromethyl)cyclopropane-1-carboxamide] | 9.15 | 8.82 | 8.66
15 | COc1cc2ncnc(-c3cn(C)nc3-c3ccccc3)c2cc1NC(=O)c1c(Cl)cccc1Cl [Example 231, 2,6-dichloro-N-(7-methoxy-4-(1-methyl-3-phenyl-1H-pyrazol-4-yl)quinazolin-6-yl)benzamide] | 9.00 | 8.62 | 8.82
16 | COc1cc2ncnc(-c3cn(C)nc3-c3ccccc3)c2cc1NC(=O)c1cnc(C)s1 [Example 206, N-(7-methoxy-4-(1-methyl-3-phenyl-1H-pyrazol-4-yl)quinazolin-6-yl)-2-methylthiazole-5-carboxamide] | 9.40 | 9.30 | 9.10
17 | CCn1cc(-c2ncnc3cc(OC)c(NC(=O)[C@]45COC[C@H]4C5)cc23)c(-c2ccc(F)cc2)n1 [Example 335, (1S,5S)—N-(4-(1-ethyl-3-(4-fluorophenyl)-1H-pyrazol-4-yl)-7-methoxyquinazolin-6-yl)-3-oxabicyclo[3.1.0]hexane-1-carboxamide] | 8.80 | 8.52 | 8.54
18 | COc1cc2ncnc(-c3cn(C)nc3-c3ccccc3)c2cc1NC(=O)C1(C)CCCO1 (stereo not drawn) [Example 224, N-(7-methoxy-4-(1-methyl-3-phenyl-1H-pyrazol-4-yl)quinazolin-6-yl)-2-methyltetrahydrofuran-2-carboxamide] | 8.52 | 8.41 | 8.29
19 | COc1cc2ncnc(-c3cn(C)nc3-c3ccccc3F)c2nc1NC(=O)C12CC(N(C)C)(C1)C2 [Example 403, 3-(dimethylamino)-N-(4-(3-(2-fluorophenyl)-1-methyl-1H-pyrazol-4-yl)-7-methoxypyrido[3,2-d]pyrimidin-6-yl)bicyclo[1.1.1]pentane-1-carboxamide] | 8.92 | 8.30 | 8.38
20 | COc1cc2ncnc(-c3cn(C)nc3-c3ccccc3)c2cc1NC(=O)c1c(F)cccc1F [Example 331, 2,6-difluoro-N-(7-methoxy-4-(1-methyl-3-phenyl-1H-pyrazol-4-yl)quinazolin-6-yl)benzamide] | 9.00 | 8.82 | 8.77
21 | COc1cc2ncnc(-c3cn(C)nc3-c3ccccc3)c2cc1NC(=O)[C@@H](C)CN(C)C (single isomer, unassigned) [Example 238, (S)-3-(dimethylamino)-N-(7-methoxy-4-(1-methyl-3-phenyl-1H-pyrazol-4-yl)quinazolin-6-yl)-2-methylpropanamide or (R)-3-(dimethylamino)-N-(7-methoxy-4-(1-methyl-3-phenyl-1H-pyrazol-4-yl)quinazolin-6-yl)-2-methylpropanamide] | 8.09 | 7.59 | 7.92
22 | CCOc1cc2ncnc(-c3cn(C)nc3-c3ccccc3)c2cc1OC1CCNCC1 [Example 8, 7-ethoxy-4-(1-methyl-3-phenyl-1H-pyrazol-4-yl)-6-(piperidin-4-yloxy)quinazoline] | 8.47 | 8.35 | 8.32
23 | Cc1c(-c2ncnc3cc(-c4cnn(C)c4)ccc23)c(-c2ccccc2)nn1C [Example 480, 4-(1,5-dimethyl-3-phenyl-1H-pyrazol-4-yl)-7-(1-methyl-1H-pyrazol-4-yl)quinazoline] | 8.36 | 7.16 | 8.25
